In data set [1] the test system is HT 29. Briefly: Growth inhibition test (MTT) for cytotoxic properties, HT 29. The note with it: read-out: IC50/nM HT 29.
Method: (§1) The human large intestine cell lines SW 480 and HT 29 (ATCC No. CCL 228 and HBT 38) and the mouse melanoma cell line B16F10 (CRL 6475) were grown in Roux dishes in RPMI 1640 medium with addition of 10% FCS. They were then trypsinized and taken up in RPMI plus 10% FCS to a cell count of 50,000 cells/ml for SW 480 and HT 29 and 20,000 cells for B16F10. 100 μl of cell suspension/well were added to a 96 microwell plate and incubated for 1 day at 37° C. in a CO2 incubator. A further 100 μl of RPMI medium and 1 μl of DMSO containing the test substances were then added. The growth was checked after day 6. To do this, 25 μl of MTT solution (3-(4,5-dimethylthiazol-2-yl)-2,5-diphenyltetrazolium bromide) having a starting concentration of 5 mg/ml of H2O were added to each microwell. Incubation was carried out for 5 hours in a CO2 incubator at 37° C. The medium was then aspirated and 100 μl of i-propanol/well were added. After shaking for 30 min with 100 μl of H2O, the extinction was measured at 595 nm using a multiplate reader (Bio.) 3550 UV.
Data set [2] deals with SW 480. Briefly: Growth inhibition test (MTT) for cytotoxic properties, SW 480. The note with it: read-out: IC50/nM SW 480.
Method: as §1
Data set [3] deals with B16F10. The data set is described as follows: Growth inhibition test (MTT) for cytotoxic properties, B16F10. The settings on record: read-out: IC50/nM B16F10.
Method: as §1
For data set [4], the system named is mouse bone marrow stem cells. Briefly: Inhibition of the CSF-induced proliferation of mouse bone marrow stem cells. The note with it: recombinant murine GM-CSF, 7 days, colony count.
Method: Bone marrow cells were washed out of mice femurs. 10^5 cells were incubated at 37° C. and 7% CO2 in McCoy 5A medium (0.3% agar) together with recombinant murine GM-CSF (Genzyme; stem cell colony formation) and the substances (10^−4 to 100 μg/ml). 7 days later, the colonies (<50 cells) and clusters (17-50 cells) were counted.
Data set [5] relates to large-cell human lung tumour xenograft LXFL 529. The data set is described as follows: In vivo inhibition of tumour growth in the nude mouse model. The settings on record: for Survival time: LXFL 529 nude mice, individual animals; for therapeutic efficacy (tumour remission): maximum tolerable dose (MTD) and ½ MTD, LXFL 529.
Method: For all in vivo experiments for investigation of the inhibition of tumour growth, athymic nude mice (NMRI nu/nu strain) were used. The selected large-cell lung carcinoma LXFL 529 was grown by serial passage in nude mice. The human origin of the tumour was confirmed by isoenzymatic and immunohistochemical methods.
The tumour was implanted subcutaneously into both flanks of small nu/nu nude mice 6 to 8 weeks old. […] The mice were assigned to the treatment group and the control group (5 mice per group with 8-10 assessable tumours) by randomization.
The size of the tumours was measured in two dimensions by means of a slide gauge. The tumour volume, which correlated well with the cell count, was then used for all evaluations. The volume was calculated according to the formula “length×breadth×breadth/2” ([a×b^2]/2, a and b represent two diameters at right angles).
The values of the relative tumour volume (RTV) were calculated for each individual tumour by dividing the tumour size on day X with the tumour size on day 0 (at the time of randomization). The mean values of the RTV were then used for the further evaluation.
The inhibition of the tumour volume (relative tumour volume of the test group/control group×100, T/C in %) was the final measured value.
The administration of the compounds was carried out intravenously (i.v.), for example on day 0, 1 and 2 after randomization, the total dose per day being split over 2 administrations.
Setting [6] is: HT 29 cells, MTT, growth checked after day 6.
Setting [7] is: SW 480 cells, MTT, growth checked after day 6.
[8] abbreviates: B16F10 cells, MTT, growth checked after day 6.
Setting [9] is: 16 mg/kg/day i.v., LXFL 529, optimum on day 28.

Values joined by “and” are separate entries in the source; they are usually repeats but may differ in a detail not shown here. Equal values may be shown once. Where a name gives a salt, the structure may show the parent alone. Read-outs that look alike come from different tables or passages of the source.

With `CC[C@@]1(O)C(=O)OCc2c1cc1n(c2=O)Cc2cc3ccccc3nc2-1` [20(S)-Camptothecin, reference compound], the results for the IC50 in data set [1] (setting [6]), in data set [2] (setting [7]) and in data set [3] (setting [8]) were 5 nM, 10 nM and 20 nM, respectively. Besides, the “Inhibition of the CSF-induced proliferation of mouse bone marrow stem cells IC50” value in data set [4] came to 0.05 ng/mL.
For `CC[C@@]1(OC(=O)C(CC(C)C)NC(=O)[C@H](CCCCN)NC(=S)Nc2ccc(OC3O[C@@H](C)[C@@H](O)[C@@H](OC)[C@@H]3O)cc2)C(=O)OCc2c1cc1n(c2=O)Cc2cc3ccccc3nc2-1` (stereo partly drawn) [Example 1, 20(S)-20-O-{N^α-[O-(3-O-Methyl-β-L-fucopyranosyl)-4-hydroxy-phenylamino-thiocarbonyl]-L-lysyl-L/D-leucyl}-camptothecin, hydrochloride], the “opt. T/C” value is 0% in data set [5] (8 mg/kg/day i.v., LXFL 529, optimum on day 14) and 0% in data set [5] (setting [9]). Moreover, the Survival time in data set [5] (8 mg/kg/day i.v., hydrochloride) was 0 days and >28 days (4×); in data set [5] (16 mg/kg/day i.v.), more than 28 days. The “Relative body weight on day 7 [% of day 0]” value in data set [5] (8 mg/kg/day i.v.) and in data set [5] (16 mg/kg/day i.v.) was 95 % of day 0 throughout. Further, in data set [5] (dose range from 16 to 8 mg/kg, therapy schedule day 1-3 i.v., further experiment), the “tumour remission (FIG. 1)” value was “long-lasting complete remission”. Moreover, the “therapeutic efficacy (tumour remission)” value in data set [5] is “complete to marked tumour remission”. In addition, the IC50 in data set [1] (Homo sapiens, HT-29, 144 h) amounted to 40 nM; in data set [2] (Homo sapiens, SW480, 144 h), 70 nM; in data set [3] (Mus musculus, B16-F10, 144 h) it was 200 nM.
Take `CCC1(OC(=O)C(NC(=O)[C@H](Cc2c[nH]cn2)NC(=S)Nc2ccc(OC3OC(C)C(O)C(OC)C3O)cc2)C(C)C)C(=O)OCc2c1cc1n(c2=O)Cc2cc3ccccc3nc2-1.Cl` (stereo partly drawn) [Example 2, 20(S)-20-O-{N-[O-(3-O-Methyl-β-L-fucopyranosyl)-4-hydroxy-phenylamino-thiocarbonyl]-L-histidyl-L/D-valyl}-camptothecin, hydrochloride]: the “opt. T/C” value in data set [5] (setting [9]) was 3.3%; in data set [5] (32 mg/kg/day i.v., LXFL 529, optimum on day 21), 0%. The Survival time in data set [5] (16 mg/kg/day i.v.) is more than 28 days; in data set [5] (32 mg/kg/day i.v., hydrochloride), >28 days (3×) and 20 days and 1 days. Besides, the “Relative body weight on day 7 [% of day 0]” value in data set [5] (16 mg/kg/day i.v.) was 103 % of day 0; in data set [5] (32 mg/kg/day i.v.) it was 98 % of day 0. Further, in data set [5], the “therapeutic efficacy (tumour remission)” value is “complete to marked tumour remission”. For the same compound, the IC50 came out at 40 nM in data set [1] (Homo sapiens, HT-29, 144 h); 100 nM in data set [2] (Homo sapiens, SW480, 144 h); 300 nM in data set [3] (Mus musculus, B16-F10, 144 h).
For `CC[C@@]1(OC(=O)[C@@H](CC(C)C)NC(=O)[C@@H](CCCCN)NC(=S)Nc2ccc(OC3O[C@@H](C)[C@@H](O)[C@@H](OC)[C@@H]3O)cc2)C(=O)OCc2c1cc1n(c2=O)Cc2cc3ccccc3nc2-1` (stereo partly drawn) [Example 3, 20(S)-20-O-{N^α-[O-(3-O-Methyl-β-L-fucopyranosyl)-4-hydroxy-phenylamino-thiocarbonyl]-D-lysyl-D-leucyl}-camptothecin, hydrochloride], the IC50 in data set [1] (Homo sapiens, HT-29, 144 h) is 20 nM; in data set [2] (Homo sapiens, SW480, 144 h) it was 100 nM; in data set [3] (Mus musculus, B16-F10, 144 h), 500 nM.
With `CC[C@@]1(OC(=O)[C@@H](CC(C)C)NC(=O)[C@H](CCCN)NC(=S)Nc2ccc(OC3O[C@@H](C)[C@@H](O)[C@@H](OC)[C@@H]3O)cc2)C(=O)OCc2c1cc1n(c2=O)Cc2cc3ccccc3nc2-1` (stereo partly drawn) [Example 4, 20(S)-20-O-{N^α-[O-(3-O-Methyl-β-L-fucopyranosyl)-4-hydroxy-phenylamino-thiocarbonyl]-L-ornithyl-D-leucyl}-camptothecin, hydrochloride], the IC50 in data set [1] (Homo sapiens, HT-29, 144 h) was determined as 20 nM; in data set [2] (Homo sapiens, SW480, 144 h), 100 nM; in data set [3] (Mus musculus, B16-F10, 144 h) it was 500 nM.
For `CC[C@@]1(OC(=O)[C@@H](CC(C)C)NC(=O)[C@H](CCCNC(=N)N)NC(=S)Nc2ccc(OC3O[C@@H](C)[C@@H](O)[C@@H](OC)[C@@H]3O)cc2)C(=O)OCc2c1cc1n(c2=O)Cc2cc3ccccc3nc2-1` (stereo partly drawn) [Example 5, 20(S)-20-O-{N^α-[O-(3-O-Methyl-β-L-fucopyranosyl)-4-hydroxy-phenylamino-thiocarbonyl]-L-arginyl-D-leucyl}-camptothecin], the IC50 was determined as 50 nM in data set [1] (Homo sapiens, HT-29, 144 h); 80 nM in data set [2] (Homo sapiens, SW480, 144 h); 200 nM in data set [3] (Mus musculus, B16-F10, 144 h).
In the case of `CC[C@@]1(OC(=O)[C@@H](CC(C)C)NC(=O)[C@H](CCCCN)NC(=S)Nc2ccc(OC3O[C@@H](C)[C@@H](O)[C@@H](OC)[C@@H]3O)cc2)C(=O)OCc2c1cc1n(c2=O)Cc2cc3ccccc3nc2-1` (stereo partly drawn) [Example 6, 20(S)-20-O-{N^α-[O-(3-O-Methyl-β-L-fuopyranosyl)-4-hydroxy-phenylamino-thiocarbonyl]-L-lysyl-D-leucyl}-camptothecin, hydrochloride], the IC50 in data set [1] (Homo sapiens, HT-29, 144 h) came out at 30 nM; in data set [2] (Homo sapiens, SW480, 144 h), 60 nM; in data set [3] (Mus musculus, B16-F10, 144 h), 300 nM.
Take `CC[C@@]1(OC(=O)[C@H](CC(C)C)NC(=O)[C@H](CCCCN)NC(=S)Nc2ccc(OC3O[C@@H](C)[C@@H](O)[C@@H](OC)[C@@H]3O)cc2)C(=O)OCc2c1cc1n(c2=O)Cc2cc3ccccc3nc2-1` (stereo partly drawn) [Example 7, 20(S)-20-O-{N^α-O-(3-O-Methyl-β-L-fucopyranosyl)-4-hydroxy-phenylamino-thiocarbonyl]-L-lysyl-L-leucyl}-camptothecin, hydrochloride]: the IC50 in data set [1] (Homo sapiens, HT-29, 144 h) came to 30 nM; in data set [2] (Homo sapiens, SW480, 144 h) it was 80 nM; in data set [3] (Mus musculus, B16-F10, 144 h), 20 nM.
The like results for `CC[C@@]1(OC(=O)[C@@H](NC(=O)[C@H](CCCCN)NC(=S)Nc2ccc(OC3O[C@@H](C)[C@@H](O)[C@@H](OC)[C@@H]3O)cc2)C(C)C)C(=O)OCc2c1cc1n(c2=O)Cc2cc3ccccc3nc2-1` (stereo partly drawn) [Example 8, 20(S)-20-O-{N^α-[-(3-O-Methyl-β-L-fucopyranosyl)-4-hydroxy-phenylamino-thiocarbonyl]-L-lysyl-L-valyl}-camptothecin, hydrochloride] were, in that order, 100 nM, 200 nM and 800 nM.
On to `CC[C@@]1(OC(=O)[C@@H](NC(=O)[C@H](Cc2cnc[nH]2)NC(=S)Nc2ccc(O[C@H]3O[C@@H](C)[C@@H](O)[C@@H](OC)[C@@H]3O)cc2)C(C)C)C(=O)OCc2c1cc1n(c2=O)Cc2cc3ccccc3nc2-1.Cl` [Example 9, 20(S)-20-O-{N^α-[O-(3-O-Methyl-β-L-fucopyranosyl)-4-hydroxy-phenylamino-thiocarbonyl]-L-histidyl-L-valyl}-camptothecin, hydrochloride], for which the IC50 stood at 70 nM in data set [1] (setting [6]), 200 nM in data set [2] (setting [7]) and 400 nM in data set [3] (setting [8]). The “Inhibition of the CSF-induced proliferation of mouse bone marrow stem cells IC50” value in data set [4] is on record as 15 ng/mL.
With `CC[C@@]1(OC(=O)[C@H](CC(C)C)NC(=O)[C@H](CCCNC(=N)N)NC(=S)Nc2ccc(OC3O[C@@H](C)[C@@H](O)[C@@H](OC)[C@@H]3O)cc2)C(=O)OCc2c1cc1n(c2=O)Cc2cc3ccccc3nc2-1` (stereo partly drawn) [Example 10, 20(S)-20-O-{N^α-[O-(3-O-Methyl-β-L-fucopyranosyl)-4-hydrdxy-phenylamino-thiocarbonyl]-L-arginyl-L-leucyl}-camptothecin], the IC50 in data set [1] (Homo sapiens, HT-29, 144 h) came out at 50 nM; in data set [2] (Homo sapiens, SW480, 144 h), 100 nM; in data set [3] (Mus musculus, B16-F10, 144 h), 300 nM.

The values are drawn from US6506734B1, “20(S) camptothecin glycoconjugates” (Bayer Aktiengesellschaft, priority 1997, dated 2003).
